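All cell lines were grown in 96-well plates and treated with compound for 48 hours. The concentration for 50% growth inhibition is given as GI50.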 The source made the active and inactive calls. Rule as the data show it: active = GI50 up to about 1.1 µM and inactive = higher.
Legend:
Test in all cases: growth of human tumour cells (NCI), 48 h
[1] = tested on: A498
[2] = tested on: A549
[3] = tested on: COLO 205
[4] = tested on: HCT-116
[5] = tested on: HCT-15
[6] = tested on: HOP-62
[7] = tested on: IGROV-1
[8] = tested on: M14
[9] = tested on: MOLT-4
[10] = tested on: NCI-H226
[11] = tested on: NCI-H522
[12] = tested on: OVCAR-8
[13] = tested on: SF-295
[14] = tested on: SK-MEL-5
[15] = tested on: SNB-19
[16] = tested on: SR
[17] = tested on: SW-620
[18] = tested on: UACC-257
[19] = tested on: HCC 2998
[20] = tested on: TK-10

| SMILES | GI50 [1] | GI50 [2] | GI50 [3] | GI50 [4] | GI50 [5] [µM] | GI50 [6] | GI50 [7] | GI50 [8] | GI50 [9] | GI50 [10] | GI50 [11] | GI50 [12] | GI50 [13] | GI50 [14] | GI50 [15] | GI50 [16] | GI50 [17] | GI50 [18] | GI50 [19] | GI50 [20] |
| --- | --- | --- | --- | --- | --- | --- | --- | --- | --- | --- | --- | --- | --- | --- | --- | --- | --- | --- | --- | --- |
| Cc1[nH]c(-c2ccccc2)c(O)c1C(=O)OC1CC(C)CCC1C(C)C (configuration not stated) | 18.6 µM (inactive) | 13.4 µM (inactive) | 14.8 µM (inactive) | 14.9 µM (inactive) | 17.8 | 15.3 µM (inactive) | 15.6 µM (inactive) | 15.6 µM (inactive) | 11.1 µM (inactive) | 16.9 µM (inactive) | 13.3 µM (inactive) | 16 µM (inactive) | 12.4 µM (inactive) | 16.6 µM (inactive) | 17.3 µM (inactive) | 8.51 µM (inactive) | 15.7 µM (inactive) | 15.7 µM (inactive) | – | – |
| C[C@]12CCC3[C@@H](C[C@H]4OC(=O)[C@@]35CCC(=O)C=C45)C1CCC2=O (some centres not stated) | – | > 100 µM (inactive) | > 100 µM (inactive) | – | > 100 | – | > 100 µM (inactive) | > 100 µM (inactive) | > 100 µM (inactive) | > 100 µM (inactive) | > 100 µM (inactive) | > 100 µM (inactive) | > 100 µM (inactive) | > 100 µM (inactive) | > 100 µM (inactive) | > 100 µM (inactive) | > 100 µM (inactive) | > 100 µM (inactive) | > 100 µM (inactive) | > 100 µM (inactive) |
| Nc1nc(Cl)cc(NCCCCO)n1 | > 100 µM (inactive) | > 100 µM (inactive) | > 100 µM (inactive) | > 100 µM (inactive) | > 100 | > 10 µM (inactive) | > 100 µM (inactive) | > 10 µM (inactive) | > 100 µM (inactive) | > 100 µM (inactive) | – | > 100 µM (inactive) | > 100 µM (inactive) | > 100 µM (inactive) | > 100 µM (inactive) | > 100 µM (inactive) | > 100 µM (inactive) | > 100 µM (inactive) | > 100 µM (inactive) | > 100 µM (inactive) |
| Cc1ccc(NC(=O)C2C(=O)N(c3ccc(C)c(C)c3)C(=O)/C2=N\NC(N)=S)cc1C (configuration not stated) | – | > 100 µM (inactive) | – | > 100 µM (inactive) | > 100 | – | 96.4 µM (inactive) | > 100 µM (inactive) | 42.6 µM (inactive) | > 100 µM (inactive) | 50.2 µM (inactive) | – | > 100 µM (inactive) | – | 29.6 µM (inactive) | > 100 µM (inactive) | > 100 µM (inactive) | > 100 µM (inactive) | – | > 100 µM (inactive) |
| Oc1cc(-c2ccc(Cl)cc2)nc2ncccc12 | 68.1 µM (inactive) | 54.2 µM (inactive) | 21.7 µM (inactive) | – | 27.4 | 55 µM (inactive) | 44.3 µM (inactive) | 40.5 µM (inactive) | 40.2 µM (inactive) | 44.6 µM (inactive) | 40.3 µM (inactive) | 61.9 µM (inactive) | – | – | 64.1 µM (inactive) | 5.56 µM (inactive) | 31.1 µM (inactive) | 53.5 µM (inactive) | 69 µM (inactive) | 94.4 µM (inactive) |
| Nc1nc(SCCc2ccccc2)nc2nc3c(c(-c4ccccc4)c12)CCCC3 | – | > 100 µM (inactive) | > 100 µM (inactive) | > 10 µM (inactive) | > 100 | 66.1 µM (inactive) | > 100 µM (inactive) | > 100 µM (inactive) | > 100 µM (inactive) | – | – | > 100 µM (inactive) | > 100 µM (inactive) | > 10 µM (inactive) | > 100 µM (inactive) | – | > 100 µM (inactive) | > 100 µM (inactive) | – | > 100 µM (inactive) |
| CC(Oc1ccc(Cl)cc1Cl)C(=O)NN1C(=O)CC(=O)NC1=S (configuration not stated) | 90.8 µM (inactive) | > 100 µM (inactive) | > 100 µM (inactive) | > 100 µM (inactive) | 86.9 | > 100 µM (inactive) | > 100 µM (inactive) | > 100 µM (inactive) | – | 82.8 µM (inactive) | > 100 µM (inactive) | > 100 µM (inactive) | > 100 µM (inactive) | > 100 µM (inactive) | > 100 µM (inactive) | > 100 µM (inactive) | > 100 µM (inactive) | > 100 µM (inactive) | > 100 µM (inactive) | > 100 µM (inactive) |
| COn1oc(=O)c2ccccc21 | > 100 µM (inactive) | > 100 µM (inactive) | > 100 µM (inactive) | > 100 µM (inactive) | > 100 | > 100 µM (inactive) | > 100 µM (inactive) | > 100 µM (inactive) | > 100 µM (inactive) | > 100 µM (inactive) | 11.5 µM (inactive) | > 100 µM (inactive) | > 100 µM (inactive) | > 100 µM (inactive) | > 100 µM (inactive) | – | > 100 µM (inactive) | > 100 µM (inactive) | > 100 µM (inactive) | > 100 µM (inactive) |
| O=S(O)CCCCCSSc1ccccc1 | 48.5 µM (inactive) | – | – | 24.3 µM (inactive) | – | > 100 µM (inactive) | – | 43.8 µM (inactive) | 8.13 µM (inactive) | – | 15.3 µM (inactive) | – | – | – | > 100 µM (inactive) | 8.02 µM (inactive) | – | 39 µM (inactive) | > 100 µM (inactive) | 84.9 µM (inactive) |
| CCC1NC(/N=N/c2ccc([N+](=O)[O-])cc2)(P(=O)(OC(C)C)OC(C)C)OC1=O (configuration not stated) | > 100 µM (inactive) | > 100 µM (inactive) | > 100 µM (inactive) | > 100 µM (inactive) | – | > 100 µM (inactive) | > 100 µM (inactive) | > 100 µM (inactive) | > 100 µM (inactive) | – | > 100 µM (inactive) | > 100 µM (inactive) | > 100 µM (inactive) | > 100 µM (inactive) | > 100 µM (inactive) | > 100 µM (inactive) | > 100 µM (inactive) | > 100 µM (inactive) | > 100 µM (inactive) | > 100 µM (inactive) |
| CC(C)(C)c1ccc2c(c1)OP1(Oc3cccc4cccnc34)(O2)Oc2ccc(C(C)(C)C)cc2O1 | 9.31 µM (inactive) | 5.58 µM (inactive) | 2.85 µM (inactive) | 3.13 µM (inactive) | 2.86 | 22.8 µM (inactive) | 3.88 µM (inactive) | – | 0.57 µM (active) | 8.49 µM (inactive) | 4.9 µM (inactive) | 3.92 µM (inactive) | 4.19 µM (inactive) | 3.27 µM (inactive) | 14.2 µM (inactive) | – | 2.25 µM (inactive) | 2.54 µM (inactive) | 9.89 µM (inactive) | – |
| C=C1C(O)C2(O)OCC34C(CC5C(C)=CC(=O)C(O)C5(C)C23)OC(=O)C(OC(=O)C/C=C/CCCCCCCC)C14 (configuration not stated) | 0.0254 µM (active) | 0.0249 µM (active) | 0.0241 µM (active) | 0.02 µM (active) | 0.0241 | 0.0233 µM (active) | 0.02 µM (active) | – | 0.02 µM (active) | 0.02 µM (active) | 0.02 µM (active) | 0.02 µM (active) | – | – | 0.0212 µM (active) | – | 0.0217 µM (active) | – | 0.02 µM (active) | – |
| C[C@@H](NC(=O)[C@@H]1C[C@]1(C)COC(=O)c1cc([N+](=O)[O-])cc([N+](=O)[O-])c1)c1cccc2ccccc12 | > 100 µM (inactive) | > 100 µM (inactive) | > 100 µM (inactive) | > 100 µM (inactive) | > 100 | 53 µM (inactive) | 70.3 µM (inactive) | > 100 µM (inactive) | > 100 µM (inactive) | > 100 µM (inactive) | – | > 100 µM (inactive) | 93.5 µM (inactive) | > 100 µM (inactive) | > 100 µM (inactive) | > 100 µM (inactive) | > 100 µM (inactive) | > 100 µM (inactive) | > 100 µM (inactive) | > 100 µM (inactive) |
| C/C(=C\c1ccccc1)n1c(=O)cc(C)n1C | – | > 100 µM (inactive) | > 100 µM (inactive) | > 100 µM (inactive) | – | > 100 µM (inactive) | > 100 µM (inactive) | > 100 µM (inactive) | 25.7 µM (inactive) | > 100 µM (inactive) | – | > 100 µM (inactive) | > 100 µM (inactive) | > 100 µM (inactive) | > 100 µM (inactive) | – | > 100 µM (inactive) | > 100 µM (inactive) | > 100 µM (inactive) | > 100 µM (inactive) |
| CSc1nc(NC2OCC(O)C(O)C2O)c(N)c(=O)n1C (configuration not stated) | > 100 µM (inactive) | > 100 µM (inactive) | > 100 µM (inactive) | > 100 µM (inactive) | > 100 | > 100 µM (inactive) | > 100 µM (inactive) | – | > 100 µM (inactive) | > 100 µM (inactive) | > 100 µM (inactive) | > 100 µM (inactive) | > 100 µM (inactive) | > 100 µM (inactive) | > 100 µM (inactive) | – | > 100 µM (inactive) | > 100 µM (inactive) | > 100 µM (inactive) | – |
| O=C(NC(Cc1ccc(I)cc1)C(=O)O)c1cccc(Br)c1 (configuration not stated) | > 100 µM (inactive) | > 100 µM (inactive) | > 100 µM (inactive) | > 100 µM (inactive) | > 100 | 67.3 µM (inactive) | > 100 µM (inactive) | – | 33.7 µM (inactive) | > 100 µM (inactive) | > 61.1 µM (inactive) | > 100 µM (inactive) | > 100 µM (inactive) | > 100 µM (inactive) | 99.1 µM (inactive) | – | > 100 µM (inactive) | > 100 µM (inactive) | 22.4 µM (inactive) | – |

— ChEMBL document CHEMBL1201862, “PubChem BioAssay data set” (2004)
